Test results published in ChEMBL document CHEMBL5137093, “Improving Drug Delivery While Tailoring Prodrug Activation to Modulate Cmax and Cmin by Optimization of (Carbonyl)oxyalkyl Linker-Based Prodrugs of Atazanavir” (J Med Chem, 2022).
≈ marks a conversion by molar mass, not a printed value.

Assays:
[1] = Ratio of Cmax/Cmin of Atazanavir in Sprague-Dawley rat at 3 ml/kg,po measured after 24 hrs by UPLC-MS/MS analysis; type: ADME; conditions: in vivo
[2] = Aqueous solubility of compound at pH 1 by UPLC analysis; type: physicochemical
[3] = Cmax in Sprague-Dawley rat at 3 ml/kg,po measured upto 24 hrs by UPLC-MS/MS analysis; type: ADME; design: dose 3 ml/kg, time < 24 hrs, route po; conditions: in vivo
[4] = Aqueous solubility of compound at pH 6.5 by UPLC analysis; type: physicochemical
[5] = Aqueous solubility of compound at pH 4 by UPLC analysis; type: physicochemical
[6] = Relative AUC ratio of Atazanavir in Sprague-Dawley rat at 3 ml/kg,po measured upto 24 hrs by UPLC-MS/MS analysis; type: ADME; conditions: in vivo
[7] = Ratio of AUC of Atazanavir in Sprague-Dawley rat at 3 ml/kg,po measured upto 24 hrs by UPLC-MS/MS analysis; type: ADME; conditions: in vivo
[8] = Tmax in Sprague-Dawley rat at 3 ml/kg,po measured upto 24 hrs by UPLC-MS/MS analysis; type: ADME; conditions: in vivo
[9] = AUClast in Sprague-Dawley rat at 3 ml/kg,po measured upto 24 hrs by UPLC-MS/MS analysis; type: ADME; design: time < 24 hrs, dose 3 ml/kg, route po; conditions: in vivo; for AUClast: 24 h
[10] = Relative Cmax ratio of Atazanavir in Sprague-Dawley rat at 3 ml/kg,po measured upto 24 hrs by UPLC-MS/MS analysis; type: ADME; conditions: in vivo
[11] = Fold ratio of total AUC of Atazanavir in Sprague-Dawley rat at 3 ml/kg,po measured upto 24 hrs by UPLC-MS/MS analysis; type: ADME; conditions: in vivo
[12] = Relative Cmax ratio of Atazanavir in Sprague-Dawley rat at 30 ml/kg,po measured upto 24 hrs by UPLC-MS/MS analysis; type: ADME; conditions: in vivo
[13] = Ratio of Cmax/Cmin of Atazanavir in Sprague-Dawley rat at 30 ml/kg,po measured after 24 hrs by UPLC-MS/MS analysis; type: ADME; conditions: in vivo
[14] = AUClast in Sprague-Dawley rat at 30 ml/kg,po measured upto 24 hrs by UPLC-MS/MS analysis; type: ADME; design: time < 24 hrs, dose 30 ml/kg, route po; conditions: in vivo
[15] = Cmax in Sprague-Dawley rat at 30 ml/kg,po measured upto 24 hrs by UPLC-MS/MS analysis; type: ADME; design: time < 24 hrs, dose 30 ml/kg, route po; conditions: in vivo
[16] = Aqueous stability of the compound in phosphate buffer at pH 6.5 assessed as compound half life measured after 24 hrs by UPLC analysis; type: physicochemical; conditions: for t1/2: buffer, pH 6.5, 24 h, 24 h; for half-life: phosphate buffer, pH 6.5
[17] = Ratio of AUC of Atazanavir in Sprague-Dawley rat at 30 ml/kg,po measured upto 24 hrs by UPLC-MS/MS analysis; type: ADME; conditions: in vivo
[18] = Aqueous stability of the compound in acetate buffer at pH 4 assessed as compound half life measured after 24 hrs by UPLC analysis; type: physicochemical; conditions: for t1/2: buffer, pH 4, 24 h, 24 h; for half-life: acetate buffer, pH 4
[19] = Relative AUC ratio of Atazanavir in Sprague-Dawley rat at 30 ml/kg,po measured upto 24 hrs by UPLC-MS/MS analysis; type: ADME; conditions: in vivo
[20] = Fold ratio of total AUC of Atazanavir in Sprague-Dawley rat at 30 ml/kg,po measured upto 24 hrs by UPLC-MS/MS analysis; type: ADME; conditions: in vivo
[21] = Tmax in Sprague-Dawley rat at 30 ml/kg,po measured upto 24 hrs by UPLC-MS/MS analysis; type: ADME; conditions: in vivo
[22] = Aqueous stability of the compound in HCL at pH 1 assessed as compound half life measured after 24 hrs by UPLC analysis; type: physicochemical; conditions: for half-life: aqueous HCl, pH 1
[23] = aqueous medium, read-out: solubility

SMILES	Ratio [1]	solubility ([2]; buffer)	Cmax ([3]; 24 h)	solubility ([4]; buffer)	solubility ([5]; buffer)	Ratio [6]	Ratio [7]	AUClast [9]	Ratio [10]	Ratio [11]	t1/2 [16]	solubility [2, 23]	solubility [5, 23]	Tmax ([8]; Sprague-Dawley, read-out: Tmax)	half-life [22]	half-life [18]	half-life [16]	further results
COC(=O)N[C@H](C(=O)N[C@@H](Cc1ccccc1)[C@H](CN(Cc1ccc(-c2ccccn2)cc1)NC(=O)[C@@H](NC(=O)OC)C(C)(C)C)OC(=O)OC(OC(=O)[C@@H](NC(=O)[C@@H](N)C(C)C)C(C)C)C(C)C)C(C)(C)C (stereo in doubt; 6e)	2936.7		3 nM	76 µg/mL (≈ 74.6 µM)		3.3	0.0004	0.0005 µM·h	3.3	3.3		> 1600 µg/mL	> 1100 µg/mL	0.3 h	> 500 h	> 500 h	167 h	
COC(=O)N[C@H](C(=O)N[C@@H](Cc1ccccc1)[C@H](CN(Cc1ccc(-c2ccccn2)cc1)NC(=O)[C@@H](NC(=O)OC)C(C)(C)C)OC(=O)OC(OC(=O)C1(N)CC1)C(C)C)C(C)(C)C (stereo in doubt; 3x)				< 1.5 µg/mL	> 950 µg/mL	1.7	2.07	1.313 µM·h	1.4	5.1		> 1200 µg/mL		0.3 h	> 500 h	> 500 h	> 500 h	Cmax ([3]; Sprague-Dawley, 3 ml/kg): 1260 nM
COC(=O)N[C@H](C(=O)N[C@@H](Cc1ccccc1)[C@H](CN(Cc1ccc(-c2ccccn2)cc1)NC(=O)[C@@H](NC(=O)OC)C(C)(C)C)OC(=O)OC(OC(=O)[C@@H](N)Cc1ccccc1)C(C)C)C(C)(C)C (stereo in doubt; 3v)				< 1 µg/mL		0.3	0		0.5	0.3		> 1520 µg/mL	> 840 µg/mL		334 h	100 h	10.7 h	
COC(=O)N[C@H](C(=O)N[C@@H](Cc1ccccc1)[C@H](CN(Cc1ccc(-c2ccccn2)cc1)NC(=O)[C@@H](NC(=O)OC)C(C)(C)C)OC(=O)OC(OC(=O)[C@@H](N)Cc1ccccc1)C(C)C)C(C)(C)C (stereo in doubt; 3w)		> 1670 µg/mL		> 890 µg/mL	> 1630 µg/mL	3.7	0.01		7.8	3.8	12.7 h			0.3 h				Cmax ([3]; Sprague-Dawley, 3 ml/kg): 50 nM; AUC(0-t) at 24 h ([9]; Sprague-Dawley, 3 ml/kg): 0.018 µM·h; t1/2 ([22]; buffer, pH 1, 24 h): 334.3 h; t1/2 [18]: 158.4 h
CN[C@H](C(=O)OC(OC(=O)O[C@@H](CN(Cc1ccc(-c2ccccn2)cc1)NC(=O)[C@@H](NC(=O)OC)C(C)(C)C)[C@H](Cc1ccccc1)NC(=O)[C@@H](NC(=O)OC)C(C)(C)C)C(C)C)C(C)C (stereo in doubt; 5e)	364.4					5.3	0.13	0.262 µM·h	4.7	6		> 2500 µg/mL	> 1400 µg/mL		> 500 h	376 h	4.7 h	Cmax ([3]; Sprague-Dawley, 3 ml/kg): 342 nM; Tmax ([8]; po, 24 h): 0.3 h
COC(=O)N[C@H](C(=O)N[C@@H](Cc1ccccc1)[C@H](CN(Cc1ccc(-c2ccccn2)cc1)NC(=O)[C@@H](NC(=O)OC)C(C)(C)C)OC(=O)OC(OC(=O)[C@@H](N)C(C)C)C(C)(C)C)C(C)(C)C (mixture of isomers)	235.5		670 nM			10.4	0.26	1.057 µM·h	5.8	13.2	65.4 h	> 800 µg/mL	> 870 µg/mL	0.4 h	> 500 h	> 500 h		solubility [4, 23]: < 1 µg/mL

Second part, led by results:

Ratio [1]	solubility ([2]; buffer)	Cmax ([3]; 24 h)	solubility ([4]; buffer)	solubility ([5]; buffer)	Ratio [6]	Ratio [7]	AUClast [9]	Ratio [10]	Ratio [11]	t1/2 [16]	solubility [2, 23]	solubility [5, 23]	Tmax ([8]; Sprague-Dawley, read-out: Tmax)	half-life [22]	half-life [18]	half-life [16]	SMILES	further results
31.8	> 1800 µg/mL	835 nM	28 µg/mL (≈ 31 µM)	> 2100 µg/mL	9.5	1.34	4.874 µM·h	2.1	22.2								COC(=O)N[C@H](C(=O)N[C@@H](Cc1ccccc1)[C@H](CN(Cc1ccc(-c2ccccn2)cc1)NC(=O)[C@@H](NC(=O)OC)C(C)(C)C)OC(=O)OC(OC(=O)C1(N)CC1)C(C)C)C(C)(C)C (stereo in doubt; 3y)	Tmax ([8]; po, 24 h): 0.4 h
22.7	> 1850 µg/mL	1880 nM		160 µg/mL (≈ 169 µM)	11.8	2.57	11.628 µM·h	2.7	42.1	334.3 h							COC(=O)N[C@H](C(=O)N[C@@H](Cc1ccccc1)[C@H](CN(Cc1ccc(-c2ccccn2)cc1)NC(=O)[C@@H](NC(=O)OC)C(C)(C)C)OC(=O)OC(OC(=O)[C@H](C(C)C)N(C)C)C(C)C)C(C)(C)C (stereo in doubt; 5h)	Ratio [12]: 0.14; Ratio [13]: 10.8; AUC(0-t) at 24 h [14]: 64.6 µM·h; Cmax [15]: 3580 nM; Tmax ([8]; po, 24 h): 0.5 h; Ratio [17]: 10.81; t1/2 [18]: 376.3 h; Ratio [19]: 0.29; Ratio [20]: 3.38; Tmax [21]: 3 h
1414	> 1000 µg/mL	235 nM	8 µg/mL (≈ 7.85 µM)	> 1400 µg/mL	3.7	0.15	0.208 µM·h	2.7	4.2	94 h							COC(=O)N[C@H](C(=O)N[C@@H](Cc1ccccc1)[C@H](CN(Cc1ccc(-c2ccccn2)cc1)NC(=O)[C@@H](NC(=O)OC)C(C)(C)C)OC(=O)OC(OC(=O)[C@@H](NC(=O)[C@@H](N)C(C)C)C(C)C)C(C)C)C(C)(C)C (stereo in doubt; 6f)	t1/2 [18]: 376.3 h
		991 nM			1.5	2.47	1.454 µM·h	1.3	5.3	27.4 h	> 1300 µg/mL	> 1400 µg/mL	0.5 h	> 500 h	334 h		COC(=O)N[C@H](C(=O)N[C@@H](Cc1ccccc1)[C@H](CN(Cc1ccc(-c2ccccn2)cc1)NC(=O)[C@@H](NC(=O)OC)C(C)(C)C)OC(=O)OC(OC(=O)[C@@H](N)C(C)C)C1CCCCC1)C(C)(C)C (stereo in doubt; 4n)	solubility [4, 23]: < 1 µg/mL
194.1	> 420 µg/mL	382 nM			4.4	0.59	0.996 µM·h	2.1	7			140 µg/mL (≈ 148 µM)	0.7 h	> 500 h	> 500 h	> 500 h	COC(=O)N[C@H](C(=O)N[C@@H](Cc1ccccc1)[C@H](CN(Cc1ccc(-c2ccccn2)cc1)NC(=O)[C@@H](NC(=O)OC)C(C)(C)C)OC(=O)OC(OC(=O)[C@H](C(C)C)N(C)C)C(C)C)C(C)(C)C (stereo in doubt; 5g)	solubility [4, 23]: < 1 µg/mL
